Data published in patent publication US10703764B2, “Benzopiperazine compositions as BET bromodomain inhibitors” (FORMA Therapeutics, Inc., priority 2013, dated 2020).

Assays:
BRD4 BD2 = target: T1, BRD4 BD2 (Homo sapiens, UniProt O60885); assay: AlphaScreen binding assay, BRD4 Bromodomain 2
T1 construct: made in house
In short: (§1)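 An AlphaScreen competition format was used with His-BRD4 BD1 or BD2 and biotin-H4 K5/8/12/16-acetyl peptide, each at matched final levels of 50 nM (BD1) or 100 nM (BD2). Incubation in HEPES/NaCl buffer with 0.1% BSA and 0.01% Triton X-100 ran ≥1 h before IC50 determination.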

MV4-11 cells = assay: Oncology cell growth assay (3-day proliferation, CellTiter-Glo); type: cell-based; conditions: Homo sapiens, MV4-11, 72 h, AML cell line MV4-11, 72 hours, compounds grouped by IC50 range, read-out: MV4-11 IC50 (inhibition of proliferation, gIC50)
In short: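 Compounds were serially diluted 3-fold in DMSO, giving final well concentrations from 10 down to 0.0045 μM. MV4-11 cells were then seeded at 3000 cells/well in RPMI 1640 with 10% FBS and incubated 72 hours. CellTiter-Glo signal was measured and gIC50 obtained by four-parameter logistic regression.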

BRD4 BD1 = target: T2, BRD4 BD1 (Homo sapiens, UniProt O60885); assay: AlphaScreen binding assay, BRD4 Bromodomain 1
T2 construct: made in house
In short: as §1

| IC50 (BRD4 BD2) | IC50 (MV4-11 cells) | IC50 (BRD4 BD1) | Structure (SMILES) |
| --- | --- | --- | --- |
| < 0.05 µM | < 0.1 µM | 0.1 to 1 µM | COc1ccccc1OC(=O)N1C[C@H](C)N(C(C)=O)c2ccc(-c3cnn(C4CC4)c3)cc21 [Example I-258] |
| < 0.05 µM | 0.1 to 0.5 µM | 1 to 10 µM | CC(=O)N1c2ccc(-c3cnn(C4CC4)c3)cc2N(C(=O)Oc2cccc(C(F)(F)F)c2)C[C@@H]1C [Example I-259] |
| < 0.05 µM | 0.1 to 0.5 µM | < 0.1 µM | CC(=O)N1c2ccc(-c3cnn(C4CC4)c3)cc2N(C(=O)Oc2ccc(Cl)cc2)C[C@@H]1C [Example I-260] |
| < 0.05 µM | 0.1 to 0.5 µM | 0.1 to 1 µM | CC(=O)N1c2ccc(-c3cnn(C4CC4)c3)cc2N(C(=O)Oc2ccc(F)cc2)C[C@@H]1C [Example I-261] |
| < 0.05 µM | 0.1 to 0.5 µM | 0.1 to 1 µM | COC(=O)c1ccc(OC(=O)N2C[C@H](C)N(C(C)=O)c3ccc(-c4cnn(C5CC5)c4)cc32)cc1 [Example I-262] |
| < 0.05 µM | 0.1 to 0.5 µM | 0.1 to 1 µM | COc1ccc(OC(=O)N2C[C@H](C)N(C(C)=O)c3ccc(-c4cnn(C5CC5)c4)cc32)cc1 [Example I-263] |
| < 0.05 µM | < 0.1 µM | 0.1 to 1 µM | CC(=O)N1c2ccc(-c3cnn(C4CC4)c3)cc2N(C(=O)Oc2ccc(C)cc2)C[C@@H]1C [Example I-264] |
| < 0.05 µM | > 0.5 µM | 1 to 10 µM | CC(=O)N1c2ccc(-c3cnn(C4CC4)c3)cc2N(C(=O)Oc2cccc3ccccc23)C[C@@H]1C [Example I-265] |
| < 0.05 µM | 0.1 to 0.5 µM | 0.1 to 1 µM | CC(=O)N1c2ccc(-c3cnn(C4CC4)c3)cc2N(C(=O)Oc2ccc(F)c(C)c2)C[C@@H]1C [Example I-266] |
| < 0.05 µM | 0.1 to 0.5 µM | 0.1 to 1 µM | CC(=O)N1c2ccc(-c3cnn(C4CC4)c3)cc2N(C(=O)Oc2ccc(Cl)cc2C)C[C@@H]1C [Example I-267] |
| < 0.05 µM | < 0.1 µM | 0.1 to 1 µM | CC(=O)N1c2ccc(-c3ccc(S(=O)(=O)NC4CC4)cc3)cc2N(C(=O)c2ccco2)C[C@@H]1C [Example I-268] |
| < 0.05 µM | 0.1 to 0.5 µM | 0.1 to 1 µM | CCCn1cc(-c2ccc3c(c2)N(C(=O)c2ccco2)C[C@H](C)N3C(C)=O)cn1 [Example I-269] |
| < 0.05 µM | 0.1 to 0.5 µM | 1 to 10 µM | CC(=O)N1c2ccc(-c3ccc(S(=O)(=O)NC(C)C)cc3)cc2N(C(=O)c2ccco2)C[C@@H]1C [Example I-274] |
| 0.05 to 0.5 µM | 0.1 to 0.5 µM | 1 to 10 µM | CC(=O)N1c2ccc(-c3ccc(S(=O)(=O)N4CCOCC4)cc3)cc2N(C(=O)c2ccco2)C[C@@H]1C [Example I-275] |
| < 0.05 µM | < 0.1 µM | 1 to 10 µM | CC(=O)N1c2ccc(-c3ccc(OCCN(C)C)cc3)cc2N(C(=O)c2ccco2)C[C@@H]1C [Example I-276] |
| < 0.05 µM | 0.1 to 0.5 µM | 1 to 10 µM | CC(=O)N1c2ccc(-c3ccc(S(=O)(=O)N(C)C)cc3)cc2N(C(=O)c2ccco2)C[C@@H]1C [Example I-277] |
| < 0.05 µM | 0.1 to 0.5 µM | 1 to 10 µM | CC(=O)N1c2ccc(-c3ccc(S(=O)(=O)N4CCN(C)CC4)cc3)cc2N(C(=O)c2ccco2)C[C@@H]1C [Example I-278] |
| < 0.05 µM | < 0.1 µM | 0.1 to 1 µM | CC(=O)N1c2ccc(-c3ccc(NS(C)(=O)=O)cc3)cc2N(C(=O)c2ccco2)C[C@@H]1C [Example I-279] |
| < 0.05 µM | 0.1 to 0.5 µM | 1 to 10 µM | CC(=O)N1c2ccc(-c3ccc(NC(N)=O)cc3)cc2N(C(=O)c2ccco2)C[C@@H]1C [Example I-280] |
| < 0.05 µM | 0.1 to 0.5 µM | 1 to 10 µM | CC(=O)N1c2ccc(-c3ccc(S(N)(=O)=O)cc3)cc2N(C(=O)c2ccco2)C[C@@H]1C [Example I-281] |
| < 0.05 µM | 0.1 to 0.5 µM | 1 to 10 µM | CC(=O)N1c2ccc(-c3ccc(C(=O)N4CCCC4)cc3)cc2N(C(=O)c2ccco2)C[C@@H]1C [Example I-282] |
| < 0.05 µM | 0.1 to 0.5 µM | 1 to 10 µM | CC(=O)N1c2ccc(-c3ccc(C(=O)N4CCOCC4)cc3)cc2N(C(=O)c2ccco2)C[C@@H]1C [Example I-283] |
| < 0.05 µM | 0.1 to 0.5 µM | 1 to 10 µM | CC(=O)N1c2ccc(-c3ccc(NC(=O)N(C)C)cc3)cc2N(C(=O)c2ccco2)C[C@@H]1C [Example I-284] |
| < 0.05 µM | 0.1 to 0.5 µM | 1 to 10 µM | CC(=O)N1c2ccc(-c3ccc(NC(=O)N4CCOCC4)cc3)cc2N(C(=O)c2ccco2)C[C@@H]1C [Example I-285] |
| > 0.5 µM | < 0.1 µM | 0.1 to 1 µM | CC(=O)N1c2ccc(-c3ccc(S(=O)(=O)N4CCCC4)cc3)cc2N(C(=O)c2ccco2)C[C@@H]1C [Example I-286] |
| < 0.05 µM | < 0.1 µM | 0.1 to 1 µM | CC(=O)N1c2ccc(-c3ccc(NS(=O)(=O)C4CC4)cc3)cc2N(C(=O)c2ccco2)C[C@@H]1C [Example I-287] |
| < 0.05 µM | 0.1 to 0.5 µM | 1 to 10 µM | CC(=O)N1c2ccc(-c3ccc(S(=O)(=O)C(C)C)cc3)cc2N(C(=O)c2ccco2)C[C@@H]1C [Example I-288] |

Continued, compound first:

| Structure (SMILES) | IC50 (BRD4 BD2) | IC50 (MV4-11 cells) | IC50 (BRD4 BD1) |
| --- | --- | --- | --- |
| CC(=O)N1c2cc(C#N)c(-c3ccc(S(C)(=O)=O)cc3)cc2N(C(=O)OC(C)C)C[C@@H]1C [Example I-219, Isopropyl (S)-4-acetyl-6-cyano-3-methyl-7-(4-(methylsulfonyl)phenyl)-3,4-dihydroquinoxaline-1(2H)-carboxylate] | > 0.5 µM | > 0.5 µM | 1 to 10 µM |
| CC(=O)N1c2ccc(-c3ccc(S(C)(=O)=O)cc3)cc2N(C(=O)Oc2ccccc2)C[C@@H]1C [Example I-223] | < 0.05 µM | < 0.1 µM | 0.1 to 1 µM |
| CCOC(=O)N1C[C@H](C)N(C(C)=O)c2ccc(-c3ccc(S(C)(=O)=O)cc3)cc21 [Example I-224] | 0.05 to 0.5 µM | > 0.5 µM | 0.1 to 1 µM |
| CC(=O)N1c2ccc(-c3ccc(S(C)(=O)=O)cc3)cc2N(C(=O)Oc2ccccc2Cl)C[C@@H]1C [Example I-225] | < 0.05 µM | < 0.1 µM | 0.1 to 1 µM |
| COc1ccccc1OC(=O)N1C[C@H](C)N(C(C)=O)c2ccc(-c3ccc(S(C)(=O)=O)cc3)cc21 [Example I-227] | < 0.05 µM | < 0.1 µM | 0.1 to 1 µM |
| COC(=O)c1ccc(OC(=O)N2C[C@H](C)N(C(C)=O)c3ccc(-c4ccc(S(C)(=O)=O)cc4)cc32)cc1 [Example I-229] | < 0.05 µM | < 0.1 µM | 0.1 to 1 µM |
| CCCCOC(=O)N1C[C@H](C)N(C(C)=O)c2ccc(-c3ccc(S(C)(=O)=O)cc3)cc21 [Example I-231] | 0.05 to 0.5 µM | 0.1 to 0.5 µM | 0.1 to 1 µM |
| CC(=O)N1c2ccc(-c3ccc(S(C)(=O)=O)cc3)cc2N(C(=O)Oc2ccc(C)cc2)C[C@@H]1C [Example I-232] | 0.05 to 0.5 µM | < 0.1 µM | 0.1 to 1 µM |
| COc1ccc(OC(=O)N2C[C@H](C)N(C(C)=O)c3ccc(-c4ccc(S(C)(=O)=O)cc4)cc32)cc1 [Example I-233] | < 0.05 µM | < 0.1 µM | 0.1 to 1 µM |
| CC(=O)N1c2ccc(-c3ccc(S(C)(=O)=O)cc3)cc2N(C(=O)Oc2ccc(F)cc2)C[C@@H]1C [Example I-234] | < 0.05 µM | < 0.1 µM | 0.1 to 1 µM |
| CC(=O)N1c2ccc(-c3ccc(S(C)(=O)=O)cc3)cc2N(C(=O)OC2CCCC2)C[C@@H]1C [Example I-236] | > 0.5 µM | > 0.5 µM | 1 to 10 µM |
| CC(=O)N1c2ccc(-c3ccc(S(C)(=O)=O)cc3)cc2N(C(=O)Oc2cccc(C(F)(F)F)c2)C[C@@H]1C [Example I-237] | < 0.05 µM | 0.1 to 0.5 µM | 1 to 10 µM |
| CC(=O)N1c2ccc(-c3ccc(S(C)(=O)=O)cc3)cc2N(C(=O)OC2CCCCC2)C[C@@H]1C [Example I-238] | < 0.05 µM | 0.1 to 0.5 µM | 0.1 to 1 µM |
| CC(=O)N1c2ccc(-c3ccc(S(C)(=O)=O)cc3)cc2N(C(=O)Oc2ccc3ccccc3c2)C[C@@H]1C [Example I-239] | < 0.05 µM | 0.1 to 0.5 µM | 1 to 10 µM |
| CC(=O)N1c2ccc(-c3ccc(S(C)(=O)=O)cc3)cc2N(C(=O)C2CCC2)C[C@@H]1C [Example I-245] | 0.05 to 0.5 µM | > 0.5 µM | 1 to 10 µM |
| CC(=O)N1c2ccc(-c3ccc(S(C)(=O)=O)cc3)cc2N(C(=O)OCC(C)C)C[C@@H]1C [Example I-250] | 0.05 to 0.5 µM | 0.1 to 0.5 µM | 0.1 to 1 µM |
| CC(=O)N1c2ccc(-c3ccc(S(C)(=O)=O)cc3)cc2N(C(=O)Oc2cccc3ccccc23)C[C@@H]1C [Example I-251] | 0.05 to 0.5 µM | > 0.5 µM | 1 to 10 µM |
| CCCOC(=O)N1C[C@H](C)N(C(C)=O)c2ccc(-c3ccc(S(C)(=O)=O)cc3)cc21 [Example I-252] | 0.05 to 0.5 µM | 0.1 to 0.5 µM | 0.1 to 1 µM |
| CC(=O)N1c2ccc(-c3cnn(C4CC4)c3)cc2N(C(=O)Oc2ccccc2)C[C@@H]1C [Example I-256] | < 0.05 µM | < 0.1 µM | 0.1 to 1 µM |
| CC(=O)N1c2ccc(-c3cnn(C4CC4)c3)cc2N(C(=O)Oc2ccccc2Cl)C[C@@H]1C [Example I-257] | < 0.05 µM | 0.1 to 0.5 µM | 0.1 to 1 µM |
